Source: ChEMBL document CHEMBL3813610, “Proteasome inhibition by new dual warhead containing peptido vinyl sulfonyl fluorides” (Bioorg Med Chem, 2016)

assay: Inhibition of 20S proteasome (unknown origin) using Suc-LLVY-AMC as substrate preincubated for 1 hr followed by substrate addition incubated for 1 hr by fluorescence analysis; set-up: species or system Homo sapiens

Which IC50 does the source give for `CC(C)C[C@@H](/C=C/S(=O)(=O)F)NC(=O)[C@H](CC(C)C)NC(=O)[C@H](CC(C)C)NC(=O)[C@H](CC(C)C)NC(=O)OCc1ccccc1` here?
Its IC50 is 99 nM.

With `CC(C)C[C@@H](CS(=O)(=O)F)NC(=O)[C@H](CC(C)C)NC(=O)[C@H](CC(C)C)NC(=O)[C@H](CC(C)C)NC(=O)OCc1ccccc1` as the molecule, how does the IC50 read?
The IC50 was 17.8 nM.

Which IC50 does the source give for `CC(C)C[C@@H](CS(=O)(=O)F)NC(=O)[C@H](CC(C)C)NC(=O)[C@H](CC(C)C)NC(=O)OCc1ccccc1` here?
The IC50 was 89.1 nM.

For `CC(C)C[C@@H](/C=C/S(=O)(=O)F)NC(=O)[C@H](CC(C)C)NC(=O)[C@H](CC(C)C)NC(=O)OCc1ccccc1`, which IC50 is on record?
The IC50 was 218 nM.
